In patent publication US20240041042A1, “1-(PYRIDYL)-5-AZINYLPYRAZOLE DERIVATIVES, AND THEIR USE FOR CONTROL OF UNDESIRED PLANT GROWTH” (Bayer Aktiengesellschaft, priority 2020, published 2024):
Like-named read-outs stand apart in the source and are kept apart here.

What was measured:
Assay type in all cases: in vivo
[1] = test system: Triticum aestivum (TRZAS); settings: pre-emergence, crop plant compatibility, in comparison to untreated controls
Method in brief: (§1)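 Crop injury rated visually in percent against untreated plants roughly 3 weeks after treatment (0% no effect, 100% plants dead). Compounds, as WP or EC with 0.5% additive in 600 l/ha water, were applied to the covering soil right after sowing; greenhouse growth. Suffixes a, b, c denote different dosages.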

[2] = test system: Pharbitis purpurea (PHBPU); test: Pre-emergence herbicidal action against PHBPU
Method in brief: (§2)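 Application rates ran to 320 g/ha or lower, with several dosages tested on the same weeds. The compound, as wettable powder or emulsion concentrate, is sprayed pre-emergence onto soil over sown seeds; greenhouse growth follows, and effect is rated visually after roughly 3 weeks.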

[3] = test system: Pharbitis purpurea (PHBPU); test: Post-emergence herbicidal action against PHBPU
Method in brief: (§3)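 Doses of 320 g/ha or lower, suffixes a, b and c marking different dosages, were applied post-emergence at the one-leaf stage in 600 l/ha water with 0.5% additive. Damage was assessed visually after about 3 weeks in the greenhouse.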

[4] = test system: Amaranthus retroflexus (AMARE); test: Pre-emergence herbicidal action against AMARE; settings: visual scoring after about 3 weeks vs untreated controls
Method in brief: as §2

[5] = test system: Echinochloa crus-galli (ECHCG); test: Pre-emergence herbicidal action against ECHCG; settings: dosage 320 g/ha
Method in brief: as §2

[6] = test system: Viola tricolor (VIOTR); test: Pre-emergence herbicidal action against VIOTR
Method in brief: as §2

[7] = test system: Polygonum convolvulus (POLCO); test: Pre-emergence herbicidal action against POLCO; settings: dosage 320 g/ha
Method in brief: as §2

[8] = test system: Verconica persica (VERPE); test: Pre-emergence herbicidal action against VERPE; settings: dosage 320 g/ha
Method in brief: as §2

[9] = test system: Triticum aestivum (TRZAS); settings: crop plant compatibility, effect vs untreated controls
Method in brief: (§4)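 Test crops were treated 2 to 3 weeks after sowing, once they reached one leaf, by spraying compound in water with 0.5% additive at 600 l/ha. Visual scoring compared them with untreated controls roughly 3 weeks on, and appendices a, b and c denote different doses.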

[10] = test system: Oryza sativa (ORYSA); settings: crop plant compatibility, effect in comparison to untreated controls
Method in brief: as §4

[11] = test system: Setaria viridis (SETVI); test: Post-emergence herbicidal action against SETVI
Method in brief: as §3

[12] = test system: Matricaria inodora (MATIN); test: Pre-emergence herbicidal action against MATIN
Method in brief: as §2

[13] = test system: Verconica persica (VERPE); test: Post-emergence herbicidal action against VERPE
Method in brief: as §3

[14] = test system: Zea mays (ZEAMX); settings: pre-emergence, 80 g/ha, crop plant compatibility, in comparison to untreated controls
Method in brief: as §1

[15] = test system: Polygonum convolvulus (POLCO); test: Post-emergence herbicidal action against POLCO
Method in brief: as §3

[16] = test system: Amaranthus retroflexus (AMARE); test: Post-emergence herbicidal action against AMARE
Method in brief: as §3

[17] = test system: Abutilon theophrasti (ABUTH); test: Post-emergence herbicidal action against ABUTH; settings: visual rating about 3 weeks after treatment vs untreated controls (100% = plants have died, 0% = like control plants)
Method in brief: as §3

[18] = test system: Alopecurus myosuroides (ALOMY); test: Post-emergence herbicidal action against ALOMY; settings: 320 g/ha, visual rating about 3 weeks after treatment vs untreated controls (100% = plants have died, 0% = like control plants)
Method in brief: as §3

[19] = test system: Lolium rigidum (LOLRI); test: Post-emergence herbicidal action against LOLRI; settings: dosage 320 g/ha
Method in brief: as §3

[20] = test system: Avena fatua (AVEFA); test: Post-emergence herbicidal action against AVEFA; settings: 320 g/ha, visual rating about 3 weeks after treatment
Method in brief: as §3

[21] = test system: Echinochloa crus-galli (ECHCG); test: Post-emergence herbicidal action against ECHCG
Method in brief: as §3

[22] = test system: Setaria viridis (SETVI); test: Pre-emergence herbicidal action against SETVI
Method in brief: as §2

[23] = test system: Lolium rigidum (LOLRI); test: Pre-emergence herbicidal action against LOLRI; settings: dosage 320 g/ha
Method in brief: as §2

[24] = test system: Alopecurus myosuroides (ALOMY); test: Pre-emergence herbicidal action against ALOMY; settings: 320 g/ha; scored visually after about 3 weeks; 100% = plants have died
Method in brief: as §2

[25] = test system: Matricaria inodora (MATIN); test: Post-emergence herbicidal action against MATIN; settings: dosage 320 g/ha
Method in brief: as §3

[26] = test system: Zea mays (ZEAMX); settings: crop plant compatibility, 80 g/ha, effect vs untreated controls
Method in brief: as §4

[27] = test system: Viola tricolor (VIOTR); test: Post-emergence herbicidal action against VIOTR
Method in brief: as §3

[28] = 320 g/ha, visual rating about 3 weeks after treatment

Pre-emergence action against TRZAS in % ([1]; 80 g/ha) [%] | Post-emergence action against TRZAS in % ([9]; 80 g/ha) [%] | Post-emergence action against ORYSA in % ([10]; 80 g/ha) [%] | SMILES | Pre-emergence action against PHBPU in % ([2]; dosage 320 g/ha) [%] | Post-emergence action against PHBPU in % ([3]; dosage 320 g/ha) [%] | Pre-emergence action against AMARE in % ([4]; 320 g/ha) [%] | Pre-emergence action against ECHCG in % [5] [%] | Pre-emergence action against VIOTR in % ([6]; 320 g/ha, Viola tricolor) [%] | Pre-emergence action against POLCO in % [7] [%] | Post-emergence action against SETVI in % ([11]; dosage 320 g/ha) [%] | Pre-emergence action against MATIN in % ([12]; dosage 320 g/ha) [%] | Post-emergence action against VERPE in % ([13]; 320 g/ha, VERPE) [%] | Post-emergence action against VERPE in % ([13]; dosage 80 g/ha) [%] | Post-emergence action against POLCO in % ([15]; dosage 320 g/ha) [%] | Post-emergence action against AMARE in % [16, 28] [%] | Post-emergence action against ABUTH in % ([17]; 320 g/ha) [%] | Post-emergence action against LOLRI in % [19] [%] | Post-emergence action against ECHCG in % ([21]; dosage 320 g/ha) [%] | Pre-emergence action against SETVI in % ([22]; dosage 320 g/ha) [%] | Pre-emergence action against LOLRI in % [23] [%] | further results
20 | 20 | 0 | COC(=O)CCOC(=O)COc1nn(-c2ncccc2C(F)(F)F)c(-c2cncc(F)c2)c1Br [Example I-160] | 90 | 90 | 80 | 90 | 100 | 90 | 80 | 80 | 90 | 80 |  |  |  |  |  |  |  | Pre-emergence action against PHBPU in % ([2]; dosage 80 g/ha): 80%; Pre-emergence action against VIOTR in % ([6]; dosage 80 g/ha): 90%; Pre-emergence action against VERPE in % [8]: 90%
0 |  | 0 | CCOC(=O)COc1nn(-c2ccccn2)c(-c2ccc(F)nc2)c1[N+](=O)[O-] [Example I-359] |  | 80 | 90 | 80 | 100 | 80 |  | 90 |  |  | 80 | 90 | 80 | 80 | 80 | 100 | 80 | Pre-emergence action against ZEAMX in % [14]: 10%; Post-emergence action against ALOMY in % [18]: 90%; Post-emergence action against AVEFA in % [20]: 90%; Post-emergence action against ORYSA in % ([10]; 320 g/ha): 0%; Pre-emergence action against SETVI in % ([22]; dosage 80 g/ha): 90%
0 | 0 | 10 | COC(=O)CCOC(=O)COc1nn(-c2cccc(C)n2)c(-c2ccc(F)nc2)c1Cl [Example I-276] | 80 | 90 | 90 | 90 |  | 80 | 90 | 80 | 90 | 80 |  | 90 |  | 80 | 80 | 90 | 100 | Pre-emergence action against TRZAS in % ([1]; 320 g/ha): 0%; Post-emergence action against PHBPU in % ([3]; dosage 80 g/ha): 80%; Pre-emergence action against ALOMY [24]: 80%; Post-emergence action against TRZAS in % ([9]; 320 g/ha): 20%; Post-emergence action against MATIN in % [25]: 80%
0 | 0 | 10 | COCCOC(=O)COc1nn(-c2cccc(C)n2)c(-c2ccc(F)nc2)c1Br [Example I-277] | 80 | 80 | 80 | 80 |  |  |  |  | 80 |  |  |  |  |  | 80 | 80 | 90 | Post-emergence action against ZEAMX in % [26]: 10%; Post-emergence action against TRZAS in % ([9]; 320 g/ha): 20%
0 |  | 0 | O=C(O)CSc1nn(-c2ccccn2)c(-c2cncc(F)c2)c1Cl [Example I-217] | 90 |  | 100 | 90 | 90 | 80 | 90 | 90 |  |  | 80 | 90 | 90 | 80 | 90 | 90 | 100 | Post-emergence action against POLCO in % ([15]; dosage 80 g/ha): 80%; Post-emergence action against AMARE in % ([16]; 80 g/ha, visual rating about 3 weeks after treatment vs untreated controls (100% = plants have died, 0% = like control plants)): 90%; Post-emergence action against ABUTH in % ([17]; 80 g/ha): 80%; Pre-emergence action against AMARE in % ([4]; 80 g/ha): 80%; Post-emergence action against VIOTR in % ([27]; 80 g/ha): 80%; Post-emergence action against VIOTR in % ([27]; 320 g/ha): 90%; Post-emergence action against AVEFA in % [20]: 90%; Post-emergence action against ECHCG in % ([21]; dosage 80 g/ha): 90%; Post-emergence action against SETVI in % ([11]; dosage 80 g/ha): 80%; Pre-emergence action against MATIN in % ([12]; dosage 80 g/ha): 80%; Post-emergence action against MATIN in % [25]: 80%
